IC50 data for 23 molecules are collected here from patent publication US10543212B2, “Substituted amines for treating cardiac diseases” (Cardurion Pharmaceuticals, LLC, priority 2017, dated 2020).

Broadly, the IC50 is the concentration that gives 50% inhibition. Read a high IC50 as lower potency.

T1 sequence (Q13557 1-478 isoform Q13557-12): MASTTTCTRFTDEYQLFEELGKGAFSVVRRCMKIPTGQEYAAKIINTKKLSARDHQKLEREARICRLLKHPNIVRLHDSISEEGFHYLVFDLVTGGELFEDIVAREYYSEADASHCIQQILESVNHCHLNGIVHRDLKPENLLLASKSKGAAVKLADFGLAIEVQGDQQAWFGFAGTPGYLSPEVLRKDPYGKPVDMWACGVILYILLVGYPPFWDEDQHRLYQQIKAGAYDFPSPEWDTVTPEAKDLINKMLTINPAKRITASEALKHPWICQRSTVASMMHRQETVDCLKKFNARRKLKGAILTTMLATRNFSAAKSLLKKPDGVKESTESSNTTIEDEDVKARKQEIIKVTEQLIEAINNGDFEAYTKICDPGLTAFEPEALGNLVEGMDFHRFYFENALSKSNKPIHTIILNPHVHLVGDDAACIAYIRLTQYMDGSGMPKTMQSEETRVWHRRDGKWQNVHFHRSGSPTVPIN

One experiment concerns the target T1, Full-length, GST-tagged, human CaMKIIδ (Homo sapiens, UniProt Q13557).
T1 construct: Full-Length, Glutathione-S-Transferase(GST)-Tagged, Human CaMKIIδ was purchased from Carna Biosciences; purchased Carna Biosciences 02-111
As to the kind of experiment: CaMKIIδ binding assay (TR-FRET with BODIPY-labeled probe ligand). The note with it: CaMKIIδ binding assay, results of Table 2. Summed up: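 Compounds were tested as 4-fold, eight-point series for 1 hr at room temperature, and IC50 was obtained by logistic fitting against a 3 μM parent-compound control. Signal came from displacement of a 300 nM BODIPY ligand from 0.5 nM GST-CaMKIIδ, detected via Tb-anti-GST in calmodulin/Ca2+ (pH 7.6).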
For orientation: In TR-FRET formats the signal depends on donor and acceptor labels being close together.
`CCc1cc2c(cc1Nc1ncc(-c3ccc(C#N)c(O[C@@H](C)Cn4cnnn4)c3)cn1)CN(C1COC1)CC2` [Example 516, (S)-2-((1-(1H-tetrazol-1-yl)propan-2-yl)oxy)-4-(2-((6-ethyl-2-(oxetan-3-yl)-1,2,3,4-tetrahydroisoquinolin-7-yl)amino)pyrimidin-5-yl)benzonitrile] returned a half-inhibitory concentration (IC50) of 10 to 100 nM.
On the same count and under the same terms, then `COc1ccc(N2CCCC(N3CCOCC3)C2)cc1Nc1ncc(-c2ccc(Cl)c(O[C@@H](C)Cn3cnnn3)c2)cn1` (stereo partly drawn) [Example 455, 5-(3-(((S)-1-(1H-tetrazol-1-yl)propan-2-yl)oxy)-4-chlorophenyl)-N-(2-methoxy-5-(3-morpholinopiperidin-1-yl)phenyl)pyrimidin-2-amine], with 10 to 100 nM.
`CCc1cc2c(cc1Nc1ncc(-c3ccc(Cl)c(O[C@@H](C)Cn4cnnn4)c3)cn1)CN(C1COC1)CC2` [Example 515, (S)-N-(5-(3-((1-(1H-tetrazol-1-yl)propan-2-yl)oxy)-4-chlorophenyl)pyrimidin-2-yl)-6-ethyl-2-(oxetan-3-yl)-1,2,3,4-tetrahydroisoquinolin-7-amine]: the IC50 lay in the range of 10 to 100 nM.
The molecule `CC(=O)N1CCC(n2cc(Nc3ncc(-c4ccc(Cl)c(O[C@@H](C)Cn5cnnn5)c4)cn3)c(C(F)(F)F)n2)CC1` [Example 488, (S)-1-(4-(4-((5-(3-((1-(1H-tetrazol-1-yl)propan-2-yl)oxy)-4-chlorophenyl)pyrimidin-2-yl)amino)-3-(trifluoromethyl)-1H-pyrazol-1-yl)piperidin-1-yl)ethan-1-one] showed an IC50 of less than 10 nM.
With `C[C@@H](Cn1cnnn1)Oc1cc(-c2cnc(Nc3cn(CC4CCNC4)nc3C(F)(F)F)nc2)ccc1Cl` (stereo partly drawn) [Example 572, 5-(3-(((S)-1-(1H-tetrazol-1-yl)propan-2-yl)oxy)-4-chlorophenyl)-N-(1-(pyrrolidin-3-ylmethyl)-3-(trifluoromethyl)-1H-pyrazol-4-yl)pyrimidin-2-amine], the half-inhibitory concentration (IC50) was less than 10 nM.
Still for that read-out and setting: then `COc1cc2c(cc1Nc1ncc(-c3ccc(Cl)c(O[C@@H](C)Cn4cnnn4)c3)cn1)C(=O)N(C1CCOCC1)C2` [Example 438, (S)-6-((5-(3-((1-(1H-tetrazol-1-yl)propan-2-yl)oxy)-4-chlorophenyl)pyrimidin-2-yl)amino)-5-methoxy-2-(tetrahydro-2H-pyran-4-yl)isoindolin-1-one], with 10 to 100 nM; and `C[C@@H](Cn1cnnn1)Oc1cc(-c2cnc(Nc3cc(N4CCN(C5CCOCC5)CC4)ncc3OC(F)(F)F)nc2)ccc1Cl` [Example 541, (S)-5-(3-((1-(1H-tetrazol-1-yl)propan-2-yl)oxy)-4-chlorophenyl)-N-(2-(4-(tetrahydro-2H-pyran-4-yl)piperazin-1-yl)-5-(trifluoromethoxy)pyridin-4-yl)pyrimidin-2-amine], with less than 10 nM; and `COc1cc2c(cc1Nc1ncc(-c3ccc(Cl)c(O[C@@H](C)Cn4cnnn4)c3)cn1)CN(C(=O)COC(C)=O)CC2` [Example 519, (S)-2-(7-((5-(3-((1-(1H-tetrazol-1-yl)propan-2-yl)oxy)-4-chlorophenyl)pyrimidin-2-yl)amino)-6-methoxy-3,4-dihydroisoquinolin-2(1H)-yl)-2-oxoethyl acetate], with 10 to 100 nM.

Still in this experiment, the particulars now being: CaMKIIδ binding assay; activity class per Table 2.
Take `C[C@@H](Cn1cnnn1)Oc1cc(-c2cnc(Nc3cn(C4CC5(C4)CN(c4ncccn4)C5)nc3OCC(F)(F)F)nc2)ccc1Cl` [Example 952, (S)-5-(3-((1-(1H-tetrazol-1-yl)propan-2-yl)oxy)-4-chlorophenyl)-N-(1-(2-(pyrimidin-2-yl)-2-azaspiro[3.3]heptan-6-yl)-3-(2,2,2-trifluoroethoxy)-1H-pyrazol-4-yl)pyrimidin-2-amine]: the IC50 was less than 10 nM.
Molecule `C[C@@H](Cn1cnnn1)Oc1cc(-c2cnc(Nc3cn(C4CC5(C4)CN(C4COCCOC4)C5)nc3OCC(F)(F)F)nc2)ccc1Cl` [Example 982, (S)—N-(1-(2-(1,4-dioxepan-6-yl)-2-azaspiro[3.3]heptan-6-yl)-3-(2,2,2-trifluoroethoxy)-1H-pyrazol-4-yl)-5-(3-((1-(1H-tetrazol-1-yl)propan-2-yl)oxy)-4-chlorophenyl)pyrimidin-2-amine] yielded a half-inhibitory concentration (IC50) of less than 10 nM.
For `CC(C)c1nn(C2CC3(C2)CN(C2COCCOC2)C3)cc1Nc1ncc(-c2ccc(Cl)c(O[C@@H](C)Cn3cnnn3)c2)cn1` [Example 983, (S)-N-(1-(2-(1,4-dioxepan-6-yl)-2-azaspiro[3.3]heptan-6-yl)-3-isopropyl-1H-pyrazol-4-yl)-5-(3-((1-(1H-tetrazol-1-yl)propan-2-yl)oxy)-4-chlorophenyl)pyrimidin-2-amine], the IC50 was less than 10 nM.
Same read-out and setting: the same measure for `C[C@@H](Cn1cnnn1)Oc1cc(-c2cnc(Nc3cn(C4CC5(C4)CN(C4COC4)C5)nc3OCC(F)(F)F)nc2)ccc1C(F)F` [Example 950, (S)-5-(3-((1-(1H-tetrazol-1-yl)propan-2-yl)oxy)-4-(difluoromethyl)phenyl)-N-(1-(2-(oxetan-3-yl)-2-azaspiro[3.3]heptan-6-yl)-3-(2,2,2-trifluoroethoxy)-1H-pyrazol-4-yl)pyrimidin-2-amine]: less than 10 nM; for `C[C@@H](Cn1cnnn1)Oc1cc(-c2cnc(Nc3cn(C4CC5(C4)CN(C(=O)OC(C)(C)C)C5)nc3C(F)(F)F)nc2)ccc1Cl` [Example 919, tert-butyl (S)-6-(4-((5-(3-((1-(1H-tetrazol-1-yl)propan-2-yl)oxy)-4-chlorophenyl)pyrimidin-2-yl)amino)-3-(trifluoromethyl)-1H-pyrazol-1-yl)-2-azaspiro[3.3]heptane-2-carboxylate]: not below 100 nM; for `C[C@@H](Cn1cnnn1)Oc1cc(-c2cnc(Nc3cn([C@H]4C[C@H](NC5CCOCC5)C4)nc3OCC(F)(F)F)nc2)ccc1Cl` [Example 942, 5-(3-(((S)-1-(1H-tetrazol-1-yl)propan-2-yl)oxy)-4-chlorophenyl)-N-(1-(trans-3-((tetrahydro-2H-pyran-4-yl)amino)cyclobutyl)-3-(2,2,2-trifluoroethoxy)-1H-pyrazol-4-yl)pyrimidin-2-amine]: less than 10 nM.

The experiment is the same for the next values; noted with them: Table 2; CaMKIIδ binding assay, activity given as class A/B/C.
In turn, `Cc1cc(Nc2ncc(-c3ccc(Cl)c(O[C@@H](C)Cn4cnnn4)c3)cn2)n(CCC#N)n1` [Example 746, (S)-3-(5-((5-(3-((1-(1H-tetrazol-1-yl)propan-2-yl)oxy)-4-chlorophenyl)pyrimidin-2-yl)amino)-3-methyl-1H-pyrazol-1-yl)propanenitrile] returned an IC50 not below 100 nM.
`COc1cccc(-n2cc(Nc3ncc(-c4ccc(Cl)c(O[C@@H](C)Cn5cnnn5)c4)cn3)c(OCC(F)(F)F)n2)n1` [Example 878, (S)-5-(3-((1-(1H-tetrazol-1-yl)propan-2-yl)oxy)-4-chlorophenyl)-N-(1-(6-methoxypyridin-2-yl)-3-(2,2,2-trifluoroethoxy)-1H-pyrazol-4-yl)pyrimidin-2-amine] yielded a half-maximal inhibitory concentration (IC50) not below 100 nM.

The same experiment, now with this note: Table 2; activity class for CaMKIIδ.
Molecule `COc1cc(N2CCN(C3CCOCC3)C[C@@H]2C)ccc1Nc1ncc(-c2ccc(Cl)c(O[C@@H](C)Cn3cnnn3)c2)cn1` [Example 654, 5-(3-(((S)-1-(1H-tetrazol-1-yl)propan-2-yl)oxy)-4-chlorophenyl)-N-(2-methoxy-4-((S)-2-methyl-4-(tetrahydro-2H-pyran-4-yl)piperazin-1-yl)phenyl)pyrimidin-2-amine] registered a half-inhibitory concentration (IC50) of less than 10 nM.
The same measure, in the same setting: then `C[C@@H](Cn1cnnn1)Oc1cc(-c2cnc(Nc3cn(C4C[C@@H]5CC[C@H]4C5)nc3C(F)(F)F)nc2)ccc1Cl` (stereo partly drawn) [Example 717, 5-(3-(((S)-1-(1H-tetrazol-1-yl)propan-2-yl)oxy)-4-chlorophenyl)-N-(1-((1S,4R)-bicyclo[2.2.1]heptan-2-yl)-3-(trifluoromethyl)-1H-pyrazol-4-yl)pyrimidin-2-amine], with not below 100 nM; and `COc1cc2c(cc1Nc1ncc(-c3ccc(Cl)c(O[C@@H](C)Cn4cnnn4)c3)cn1)NCCC2` [Example 591, (S)-N-(5-(3-((1-(1H-tetrazol-1-yl)propan-2-yl)oxy)-4-chlorophenyl)pyrimidin-2-yl)-6-methoxy-1,2,3,4-tetrahydroquinolin-7-amine], with less than 10 nM.
Still for that read-out and setting: the same measure for `COc1nc(N2CCCN(C(=O)OC(C)(C)C)CC2)ccc1Nc1ncc(-c2ccc(Cl)c(O[C@@H](C)Cn3cnnn3)c2)cn1` [Example 665, tert-butyl (S)-4-(5-((5-(3-((1-(1H-tetrazol-1-yl)propan-2-yl)oxy)-4-chlorophenyl)pyrimidin-2-yl)amino)-6-methoxypyridin-2-yl)-1,4-diazepane-1-carboxylate]: not below 100 nM.
For `COc1cc(N2C[C@@H]3C[C@H]2CN3)ccc1Nc1ncc(-c2ccc(Cl)c(O[C@@H](C)Cn3cnnn3)c2)cn1` [Example 634, 5-(3-(((S)-1-(1H-tetrazol-1-yl)propan-2-yl)oxy)-4-chlorophenyl)-N-(4-((1S,45)-2,5-diazabicyclo[2.2.1]heptan-2-yl)-2-methoxyphenyl)pyrimidin-2-amine], the concentration for half-maximal inhibition (IC50) fell in the range of 10 to 100 nM.
Still for that read-out and setting: the same measure for `CCOC(=O)C1CCC(n2cc(Nc3ncc(-c4ccc(Cl)c(O[C@@H](C)Cn5cnnn5)c4)cn3)c(C(F)(F)F)n2)CC1` (stereo partly drawn) [Example 603, ethyl (S)-4-(4-((5-(3-((1-(1H-tetrazol-1-yl)propan-2-yl)oxy)-4-chlorophenyl)pyrimidin-2-yl)amino)-3-(trifluoromethyl)-1H-pyrazol-1-yl)cyclohexane-1-carboxylate]: 10 to 100 nM; for `C[C@@H](Cn1cnnn1)Oc1cc(-c2cnc(Nc3cn([C@@H]4C[C@H]5CC[C@@H](C4)N5)nc3C(F)(F)F)nc2)ccc1Cl` [Example 702, 5-(3-(((S)-1-(1H-tetrazol-1-yl)propan-2-yl)oxy)-4-chlorophenyl)-N-(1-((1R,3s,5S)-8-azabicyclo[3.2.1]octan-3-yl)-3-(trifluoromethyl)-1H-pyrazol-4-yl)pyrimidin-2-amine]: less than 10 nM.
